From US11739073B2, “Aryl-n-aryl derivatives for treating a RNA virus infection” (ABIVAX, priority 2018, dated 2023)
pEC50, pIC50: −log10 of the molar value.

Key:
[1] = test system: Chikungunya Virus (CHIKV); test: Inhibition of Chikungunya virus (CHIKV) production in infected HEK293T cell line (GFP-modified virus, fluorescence); assay type: cell-based, CHIKV strain of La Réunion outbreak (LR2006-OPY1); settings: HEK-293T, infected HEK293T cells; for inhibition at 1 µM: compounds at 1 μM, MOI 0.1, 22 h, values above 100 lowered to 100, read-out: % CHIKV Inhibition Mean (n = 2); for pIC50: read-out: IC50 (CHIKV, second round of experiments)
Description: The ability of the compounds to inhibit viral replication was assessed with an experiment in which infected cells were treated by compounds of formula (I) at 1 μM. As a positive control for inhibition of Chikungunya, Ribavirin was used. Toxicity of the compounds was assessed in parallel.
Human embryonic kidney cells 293T (HEK293T, CRL-11268) were maintained in Dulbecco's modified Eagle's Medium (DMEM, 31966-021, Thermo Fisher Scientific) supplemented with 10% of fetal bovine serum (FBS), penicillin and streptomycin. After removal of the medium, cells were washed with Ca^2+ and Mg^2+-free salt solution to remove all traces of serum. After aspiration of wash solution, cells were dissociated with 0.25% Trypsin-EDTA solution and incubated 30 s at least in 37° C. incubator. Concentration of cell suspension was determined by an automatic cell counter (EVE, NanoEntek) and, if needed, adjusted to 0.33×10^6 cells/mL with DMEM medium supplemented with 10% FBS.
100 μL of the cell suspension were dispatched in a ViewPlate-96 Black (6005182, PerkinElmer) and in a transparent 96-well cell culture plate (655180, Greiner bio-one). After an incubation for 24 h at 37° C. under 5% of CO2, compounds were added at the proper concentration.
An intermediate dilution was prepared with DMSO (D8418, Sigma) at 2 mM in a 96-well V-bottom microplate from the stock solution:
Mix 1 μL of the 50 mM stock library in 25 μL of DMSO.
Mix 2 μL of the 25 mM stock library in 25 μL of DMSO.
An intermediate dilution was prepared with DMSO (D8418, Sigma) at 25 mM in a 96-well V-bottom microplate from the stock solution:
Mix 2 μL of the 50 mM stock library in 2 μL of DMSO.
Perform serial dilution in 2 μL of DMSO 13 times to reach 0.0015 mM. Proceed as follows in table III:
For both screen and determination of IC50, 1 μL of each solution was added in a 1 mL Masterblock 96 wells (Greiner bio-one, 780261) containing 1 mL of DMEM medium. As a positive control, 5 μL of a 80 mM Ribavirin solution (R9644, Sigma) is added to 1 mL of DMEM. On the other hand, DMSO is used as a negative control.
[…]. Vector Borne Zoonotic Dis. 2006; 6(4)). This modified virus was used to infect cells at MOI 0.1. […]. Medium was removed after 22 h at 37° C. under 5% of CO2 and cells were washed as described above. 60 μL of RIPA buffer (50 mM Tris-HCl pH8, 100 mM NaCl, 1 mM MgCl2, 1% Triton X-100) was added to cells and incubated for at least 20 min before reading fluorescence signal. Pierce 660 nm Protein Assay Reagent (22660, Thermo scientific) was used to normalize fluorescence signal by protein quantity.
CellTiter 96® AQueous One Solution Cell Proliferation Assay (MTS) (G3581, Promega) was used to check the toxicity of the compounds. We added 20 μL of MTS solution and read absorbance at 492 nm one hour later.
Results • A first round of experiments has been performed wherein the results are expressed as inhibition percentage, which is calculated as follows, through the following steps:
1. Fluorescence intensity (FI)/Absorbance 660 nm (A660)=A
This ratio allows considering the infection (GFP virus) to the protein amount.
2. A′=A—background noise of non-infected plate,
3. B=Fluorescence intensity (FI)/Absorbance 660 nm (A660) of infected but non treated plates,
4. C=A′/B, which is then converted as the percentage of infection after treatment, compared to non-treated sample, and subsequently as the […]. For instance, a value of 100 in Table IV here below means that, after treatment, the signal attributed to GFP fluorescence is abolished, which is correlated to the absence of infection.
This value corresponds to the inhibition's percentage.
The following Table IV encompasses said C′ value for some compounds, as calculated above with a mean of 2 experiments, and corresponding standard deviation.
Some values were originally above 100. In these cases, the value has been lowered to 100. This means that some molecules also have an impact on the viability of the cells. […]

DENV-2 = DENV-2 inhibition in A549 cells using Viral ToxGlo assay (cytopathic effect); assay type: cell-based, DENV-2 strain 16681; settings: Dengue virus, DENV2, A549, 120 h, read-out: % DENV-2 Inhibition Mean (n = 3)
Description: Protocol for Screening Antiviral Compounds for DENV-2 Inhibition and Cytotoxicity Using Viral ToxGlo Assay
A549 cells were maintained in Dulbecco's Modified Eagle Medium (DMEM) supplemented with 10% fetal bovine serum, 100 U/ml penicillin and 100 μg/ml streptomycin. For the purposes of the screening assay they were grown to 90% confluency, trypsinized and recovered. The trypsin was neutralised with cell culture media and cells were centrifuged at 150×g for 5 minutes before discarding the supernatant and resuspending cell pellet in assay media (DMEM supplemented with 2% fetal bovine serum and 100 U/ml penicillin and 100 μg/ml streptomycin). The cells were seeded into 96-well white clear-bottomed cell culture plates at a density of 1.0×10^4 cells/well in 50 μl. For the media/background control column assay media only was added. Cell plates were placed in a humid chamber and incubated overnight at 37° C./5% CO2. After overnight incubation cells were checked for confluency and healthy appearance.
Test compounds were prepared at a final concentration of 10 μM in a maximum DMSO concentration of 1% (final assay concentration maximal 0.1% DMSO) and added to the cell plates in volumes of 10 μl. For cell control and virus control wells the test article solvent only was added. As a positive inhibition control, 7-Deaza-2′-C-methyladenosine was added at 100 μM in 3 wells. Virus (DENV-2 strain 16681) or assay media for cytotoxicity test wells and media/cell control wells was added immediately after test articles at an MOI of 0.5, 40 for 96 well plates respectively. Virus suspension was prepared by thawing DENV-2 frozen stocks and diluting to the required concentration of plaque forming units in assay media.
Cell plates were further incubated inside a humid chamber for 5 days p.i at 37° C./5% CO2. After the incubation period cells were observed under the microscope to check for characteristic cytopathic effect in virus control wells and healthy cells in the cell control wells. After plates were adjusted to room temperature 20 μl Viral ToxGlo (Promega) was added to each well of the 96-well cell plates. Plates were incubated at room temperature for 5 minutes before measuring the luminescence on a spectrophotometer (Envision, PerkinElmer).
DENV-2 inhibition was calculated as percentage of cytopathic effect inhibition relative to the virus control and cytotoxicity as percentage of cell survival relative to cell control wells.

RSV = RSV inhibition in HEp-2 cells using Viral ToxGlo assay (cytopathic effect); assay type: cell-based, RSV A2; settings: human respiratory syncytial virus, HEp-2, 72 h
Description: Protocol for Screening Antiviral Compounds for RSV Inhibition and Cytotoxicity Using Viral ToxGlo Assay
HEp-2 cells were maintained in Eagle's minimum essential medium (EMEM) with Earle's BSS adjusted to contain 2 mM L-glutamine, 10% fetal bovine serum, 100 U/ml penicillin and 100 μg/ml streptomycin. For the purposes of the screening assay they were grown to 90% confluency, trypsinized and recovered. The trypsin was neutralised with cell culture media and cells were centrifuged at 150×g for 5 minutes before discarding the supernatant and resuspending cell pellet in assay media (EMEM with Earle's BSS adjusted to contain 2 mM L-glutamine, 2% fetal bovine serum and 100 U/ml penicillin and 100 μg/ml streptomycin). The cells were seeded into white clear-bottomed cell culture plates at a density of 1.5×10^4 cells/well in 50 μl and 4×10^3 cells/well in 25 μl for 96 well plates and 384 well plates respectively. For the media/background control column assay media only was added. Cell plates were placed in a humid chamber and incubated overnight at 37° C./5% CO2. After overnight incubation cells were checked for confluency and healthy appearance.
Test articles were made up at 10× test concentration in a maximum DMSO concentration of 10% (final assay concentration maximal 1% DMSO) and added to the cell plates in volumes of 10 μl for 96 well plates and 5 μl for 384 well plates. For cell control and virus control wells the test article solvent only was added. Virus or assay media for cytotoxicity test wells and media/cell control wells was added immediately after test articles at an MOI of 0.5, 40 or 20 μl for 96 and 384 well plates respectively. Virus suspension was prepared by thawing RSV A2 frozen stocks and diluting to the required concentration of plaque forming units in assay media on ice.
Cell plates were further incubated inside a humid chamber for 72 h p.i at 37° C./5% CO2. After the incubation period cells were observed under the microscope to check for characteristic cytopathic effect in virus control wells and healthy cells in the cell control wells. After plates were adjusted to room temperature 20/40 μl Viral ToxGlo (Promega) was added to each well of the 384/96 well cell plates. Plates were incubated at room temperature, protected from light on a plate rocker for 20 minutes before measuring the luminescence on a spectrophotometer (Biotek Synergy HTX).
RSV inhibition was calculated as percentage of cytopathic effect inhibition relative to the virus control and cytotoxicity as percentage of cell survival relative to cell control wells. This allowed EC50 values to be calculated for each test article where a virus inhibition or cytotoxic dose response was identified.

SMILES | inhibition at 1 µM [1] [%] | pIC50 [1] | inhibition at 10 µM (DENV-2) [%] | pEC50 (RSV)
CC(C)CCNC(=O)c1cccc(Nc2ccc(/C=C/c3ccccn3)cc2)c1 [Compound 1, (E)-N-isopentyl-3-((4-(2-(pyridin-2-yl)vinyl)phenyl)amino)benzamide] | 98 | – | – | –
CC(C)CCNC(=O)c1ccc(Nc2ccc(/C=C/c3ccccn3)cc2)cc1 [Compound 2, (E)-N-isopentyl-4-((4-(2-(pyridin-2-yl)vinyl)phenyl)amino)benzamide] | 74 | – | – | –
O=C(NCCC1CCCCC1)c1cccc(Nc2ccc(/C=C/c3ccccn3)cc2)c1 [Compound 4, (E)-N-(2-cyclohexylethyl)-3-((4-(2-(pyridin-2-yl)vinyl)phenyl)amino)benzamide] | 99 | – | – | –
O=C(NCCC1CCCC1)c1cccc(Nc2ccc(/C=C/c3ccccn3)cc2)c1 [Compound 6, (E)-N-(2-cyclopentylethyl)-3-((4-(2-(pyridin-2-yl)vinyl)phenyl)amino)benzamide] | 98 | 6.30 to 6.70 | – | –
O=C(NCCC1CCC1)c1cccc(Nc2ccc(/C=C/c3ccccn3)cc2)c1 [Compound 9, (E)-N-(2-cyclobutylethyl)-3-((4-(2-(pyridin-2-yl)vinyl)phenyl)amino)benzamide] | 98 | – | – | –
Cc1cc(/C=C/c2ccccn2)ccc1Nc1cccc(C(=O)NCCC2CCCC2)c1 [Compound 12, (E)-N-(2-cyclopentylethyl)-3-((2-methyl-4-(2-(pyridin-2-yl)vinyl)phenyl)amino)benzamide] | – | 6.70 to 9.00 | 96 | 5.60 to 6.43
Cc1cc(/C=C/c2ccccn2)ccc1Nc1cccc(C(=O)NCCC(C)C)c1 [Compound 13, (E)-N-isopentyl-3-((2-methyl-4-(2-(pyridin-2-yl)vinyl)phenyl)amino)benzamide] | – | 6.70 to 9.00 | 86 | 5.60 to 6.43
CC(C)CCNC(=O)c1cccc(Nc2ccc(C(=O)Nc3ccccn3)cc2)c1 [Compound 14, N-isopentyl-3-((4-(pyridin-2-ylcarbamoyl)phenyl)amino)benzamide] | 93 | 6.30 to 6.70 | – | –
O=C(NCCC1CCCC1)c1cccc(Nc2ccc(C(=O)Nc3ccccn3)cc2)c1 [Compound 15, N-(2-cyclopentylethyl)-3-((4-(pyridin-2-ylcarbamoyl)phenyl)amino)benzamide] | 98 | 6.30 to 6.70 | 107 | –
O=C(NCCC1CCCCC1)c1cccc(Nc2ccc(C(=O)Nc3ccccn3)cc2)c1 [Compound 16, N-(2-cyclohexylethyl)-3-((4-(pyridin-2-ylcarbamoyl)phenyl)amino)benzamide] | 100 | 6.30 to 6.70 | – | 5.93
CC(C)CCNC(=O)c1cccc(Nc2ccc(NC(=O)c3ccccn3)cc2)c1 [Compound 32, N-(4-((3-(isopentylcarbamoyl)phenyl)amino)phenyl)picolinamide] | 99 | 6.30 to 6.70 | – | –
O=C(NCCC1CCCC1)c1cccc(Nc2ccc(NC(=O)c3ccccn3)cc2)c1 [Compound 35, N-(4-((3-((2-cyclopentylethyl)carbamoyl)phenyl)amino)phenyl)picolinamide] | 100 | 6.30 to 6.70 | 66 | –
O=C(Nc1ccccc1)c1ccc(Nc2cccc(OCCCC3CCCCC3)c2)c(C2CC2)c1 [Compound 115, 4-{[3-(3-cyclohexylpropoxy)phenyl]amino}-3-cyclopropyl-N-phenylbenzamide] | – | – | – | 6.64
